Data set [1] has as its target T1, PI 3-kinase beta (Homo sapiens, UniProt P42338). As to the kind of experiment: Kinase Glo Luminescent Kinase Assay (Kglo), assay B. Format: biochemical. The conditions noted are these: read-out: Assay B PI3Kβ IC50.
Target sequence in this assay (P42338 whole entry): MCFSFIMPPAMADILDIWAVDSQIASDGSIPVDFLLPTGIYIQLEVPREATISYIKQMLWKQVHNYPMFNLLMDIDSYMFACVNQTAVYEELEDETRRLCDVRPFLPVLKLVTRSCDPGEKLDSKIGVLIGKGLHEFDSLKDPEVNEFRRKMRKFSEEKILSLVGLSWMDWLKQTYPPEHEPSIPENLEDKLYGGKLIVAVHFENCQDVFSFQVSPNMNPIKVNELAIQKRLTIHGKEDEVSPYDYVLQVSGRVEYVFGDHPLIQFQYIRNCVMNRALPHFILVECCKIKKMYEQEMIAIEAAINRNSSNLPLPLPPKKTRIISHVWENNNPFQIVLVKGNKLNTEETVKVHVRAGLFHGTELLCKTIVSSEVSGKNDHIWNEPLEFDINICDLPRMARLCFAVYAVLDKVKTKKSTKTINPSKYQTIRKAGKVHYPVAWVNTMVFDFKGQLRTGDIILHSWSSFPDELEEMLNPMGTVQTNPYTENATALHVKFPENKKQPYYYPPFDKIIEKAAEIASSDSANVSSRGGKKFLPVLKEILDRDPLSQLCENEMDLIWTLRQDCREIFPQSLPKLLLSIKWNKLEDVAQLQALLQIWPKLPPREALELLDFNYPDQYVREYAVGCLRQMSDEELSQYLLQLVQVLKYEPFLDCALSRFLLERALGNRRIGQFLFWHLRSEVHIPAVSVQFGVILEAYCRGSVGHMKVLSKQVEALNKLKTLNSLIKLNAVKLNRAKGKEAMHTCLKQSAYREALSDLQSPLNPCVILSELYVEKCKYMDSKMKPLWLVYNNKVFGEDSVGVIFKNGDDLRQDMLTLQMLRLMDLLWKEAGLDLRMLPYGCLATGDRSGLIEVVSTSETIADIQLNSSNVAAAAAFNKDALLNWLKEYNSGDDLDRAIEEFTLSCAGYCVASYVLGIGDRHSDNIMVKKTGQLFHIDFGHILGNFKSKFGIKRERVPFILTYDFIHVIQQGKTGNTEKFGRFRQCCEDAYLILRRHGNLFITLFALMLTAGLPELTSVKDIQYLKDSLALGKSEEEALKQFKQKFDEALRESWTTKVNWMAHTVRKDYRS
Target sequence in this assay (P27986 461-568 partner): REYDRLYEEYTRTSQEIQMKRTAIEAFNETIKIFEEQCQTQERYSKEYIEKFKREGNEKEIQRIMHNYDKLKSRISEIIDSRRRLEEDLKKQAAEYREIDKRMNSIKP
For data set [2], the target named is T2, PI 3-kinase delta (Homo sapiens, UniProt O00329). As to the kind of experiment: Cellular assay J1, p-Akt (S473) in Rat-1 cells, Surefire format. The format is cell-based. As to conditions: non-asterisked data: version J1 (Surefire format), Rat-1 cells; read-out: Assay J PI3Kδ IC50.
Data set [3] addresses T2, PI 3-kinase delta. The experiment in a line: TR-FRET Adapta assay, assay F. For orientation: In TR-FRET formats the signal depends on donor and acceptor labels being close together.
For data set [4], the target named is T1, PI 3-kinase beta. As to the kind of experiment: Cellular assay I1, p-Akt (S473) in Rat-1 cells, Surefire format. The conditions noted are these: non-asterisked data: version I1 (Surefire format), Rat-1 cells; read-out: Assay I PI3Kβ IC50. Format: cell-based.
Target sequence in this assay (P42338 whole entry): as the sequence (P42338 whole entry) above
Target sequence in this assay (Q63787 whole entry partner): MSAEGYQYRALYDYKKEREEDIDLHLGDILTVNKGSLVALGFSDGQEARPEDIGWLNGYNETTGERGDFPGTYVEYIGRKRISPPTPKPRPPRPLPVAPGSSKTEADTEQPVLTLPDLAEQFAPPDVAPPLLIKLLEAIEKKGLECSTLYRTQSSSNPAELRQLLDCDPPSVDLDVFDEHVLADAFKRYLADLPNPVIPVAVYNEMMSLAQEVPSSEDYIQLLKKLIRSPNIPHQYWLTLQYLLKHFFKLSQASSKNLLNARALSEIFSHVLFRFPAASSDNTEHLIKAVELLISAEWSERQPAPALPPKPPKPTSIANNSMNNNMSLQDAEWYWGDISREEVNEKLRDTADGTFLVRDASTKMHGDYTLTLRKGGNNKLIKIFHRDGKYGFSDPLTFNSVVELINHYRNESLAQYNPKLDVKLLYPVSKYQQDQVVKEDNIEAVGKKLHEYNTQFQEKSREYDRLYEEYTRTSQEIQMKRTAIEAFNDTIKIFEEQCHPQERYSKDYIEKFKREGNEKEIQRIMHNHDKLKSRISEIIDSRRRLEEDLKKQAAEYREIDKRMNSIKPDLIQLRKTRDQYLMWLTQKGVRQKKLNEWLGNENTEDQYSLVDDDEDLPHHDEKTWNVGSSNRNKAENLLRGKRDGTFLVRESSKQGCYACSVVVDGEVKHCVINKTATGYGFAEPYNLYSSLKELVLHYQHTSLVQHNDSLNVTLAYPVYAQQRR
Excerpt: Cellular Assays for PI 3-Kinase Alpha (H1), Beta (I1) and Delta (J1): Surefire Format
AlphaScreen (Amplified Luminescent Proximity Homogeneous Assay, ALPHA, Perkin Elmer) is a non-radioactive bead-based proximity assay technology to study biomolecular interactions in a homogenous microtiter plate format. The brand name SureFire denotes AlphaScreen assays that are adapted to quantify the phosphorylation of endogenous cellular proteins in cell lysates, by using matched antibody pairs, which consist of an anti-phospho-kinase and an anti-kinase antibody. The assay allows characterization of kinase signaling in cells as well as measurement of kinase inhibitor effects.
Using Rat-1 cells stably expressing myr-HA-tagged versions of the human PI3Kdelta, PI3Kalpha, or PI3Kbeta p110 catalytic subunit isoforms, the assay was developed as a two-plate protocol in a 384-well format.
For compound testing, the cells were seeded at a density of 4000 (Rat-1_PI3Kdelta), 7500 (Rat-1_PI3Kalpha), or 6200 (Rat-1_PI3Kbeta) cells in 20 μl complete growth medium into cell culture treated 384-well plates and were grown at 37° C./5% CO2/90% humidity for 24 h. Shortly before compound transfer, the complete medium was removed, 30 μl assay buffer (DMEM high glucose, 1×MEM NEAA, 10 mM HEPES, 2 mM L-glutamine, 0.1% (w/v) BSA) was added and 10 μl of the compound predilutions were transferred to the cells.
The target of a further data set is PI 4-kinase beta (Homo sapiens, UniProt Q9UBF8). As to the kind of experiment: Kinase Glo Luminescent Kinase Assay (Kglo), assay D. The format is biochemical. As to conditions: read-out: Assay D PI4Kβ IC50. (In general: Kinase-Glo reads ATP consumption through a luciferase reaction.)
For the next data set, the target named is Vps34 (Homo sapiens, UniProt Q8NEB9). The experiment in a line: Kinase Glo Luminescent Kinase Assay (Kglo), assay C. The format is biochemical. The conditions noted are these: read-out: Assay C VPS34 IC50.
Data set [5] deals with T3, PI 3-kinase alpha (Homo sapiens, UniProt P42336). The experiment in a line: Kinase Glo Luminescent Kinase Assay (Kglo), assay A. The format is biochemical. The conditions noted are these: read-out: Assay A PI3Kα IC50.
Target sequence in this assay (P42336 whole entry): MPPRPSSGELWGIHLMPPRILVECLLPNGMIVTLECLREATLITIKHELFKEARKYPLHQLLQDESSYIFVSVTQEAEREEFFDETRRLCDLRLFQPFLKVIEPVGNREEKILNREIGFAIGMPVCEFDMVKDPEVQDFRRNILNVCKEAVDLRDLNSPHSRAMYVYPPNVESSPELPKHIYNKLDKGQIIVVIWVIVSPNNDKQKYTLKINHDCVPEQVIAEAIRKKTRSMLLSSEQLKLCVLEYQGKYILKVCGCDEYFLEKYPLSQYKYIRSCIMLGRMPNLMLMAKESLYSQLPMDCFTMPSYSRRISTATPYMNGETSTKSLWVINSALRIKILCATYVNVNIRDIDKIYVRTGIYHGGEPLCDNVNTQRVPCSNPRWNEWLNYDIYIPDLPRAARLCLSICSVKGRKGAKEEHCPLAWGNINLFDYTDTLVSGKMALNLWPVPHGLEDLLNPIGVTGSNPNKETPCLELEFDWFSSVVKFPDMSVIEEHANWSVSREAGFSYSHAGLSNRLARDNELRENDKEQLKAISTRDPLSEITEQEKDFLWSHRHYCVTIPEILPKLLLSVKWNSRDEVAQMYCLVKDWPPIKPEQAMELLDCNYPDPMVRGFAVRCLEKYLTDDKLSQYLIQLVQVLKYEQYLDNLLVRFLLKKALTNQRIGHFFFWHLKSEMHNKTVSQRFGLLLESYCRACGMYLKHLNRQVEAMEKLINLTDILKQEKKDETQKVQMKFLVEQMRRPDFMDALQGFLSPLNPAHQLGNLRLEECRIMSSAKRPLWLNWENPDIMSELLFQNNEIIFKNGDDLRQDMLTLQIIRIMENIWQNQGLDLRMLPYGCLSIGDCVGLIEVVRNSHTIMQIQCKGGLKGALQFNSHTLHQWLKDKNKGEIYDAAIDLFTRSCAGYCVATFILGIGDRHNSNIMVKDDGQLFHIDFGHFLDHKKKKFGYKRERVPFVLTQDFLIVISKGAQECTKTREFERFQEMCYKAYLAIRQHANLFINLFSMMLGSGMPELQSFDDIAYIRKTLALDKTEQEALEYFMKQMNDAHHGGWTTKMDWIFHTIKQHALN
Data set [6] relates to IL-8-induced neutrophil shape change in human whole blood. The experiment in a line: Whole blood neutrophil shape change assay (L). The format is cell-based. As to conditions: Homo sapiens, Neutrophil, IL-8, human whole blood, read-out: Assay L WBSC IC50.
Another data set concerns the target mTOR (Homo sapiens, UniProt P42345). The experiment in a line: Lanthascreen kinase binding assay, assay G. The conditions noted are these: read-out: Assay G mTOR IC50.
The target of data set [7] is T3, PI 3-kinase alpha. As to the kind of experiment: Cellular assay H1, p-Akt (S473) in Rat-1 cells, Surefire format. Format: cell-based. As to conditions: non-asterisked data: version H1 (Surefire format), Rat-1 cells; read-out: Assay H PI3Kα IC50.
Target sequence in this assay (P42336 whole entry): as above
Target sequence in this assay (Q63787 whole entry partner): as the sequence (Q63787 whole entry partner) above
A short description of data set [8]: Microsomal clearance assay (M). The conditions noted are these: intrinsic clearance in rat liver microsomes. (In general: Liver microsomes are vesicles of endoplasmic reticulum, rich in cytochrome P450 enzymes.)
Description: The experiments were performed in 96-well glass plates at 37° C. on an automated Tecan EVO platform. Test compounds at a concentration of 10 mM in pure DMSO were diluted 1:1000 in water to 10 μM. […] Reactions were initiated by the addition of 150 μL of a cofactor solution containing 2 mM NADPH.
For data set [9], the target named is T4, PI 3-kinase gamma (Homo sapiens, UniProt P48736). As to the kind of experiment: Cellular U937 AKT assay K1 (MSD). The format is cell-based. As to conditions: U937 cells, K1 format; read-out: Assay K1 PI3Kγ IC50.
Data set [10] addresses T4, PI 3-kinase gamma. As to the kind of experiment: TR-FRET Adapta assay, assay E. Format: biochemical. As to conditions: read-out: Assay E PI3Kγ IC50.

Where only a bound is given, the exact number is not on record here.

Chain of PI 4-kinase beta (Q9UBF8 whole entry): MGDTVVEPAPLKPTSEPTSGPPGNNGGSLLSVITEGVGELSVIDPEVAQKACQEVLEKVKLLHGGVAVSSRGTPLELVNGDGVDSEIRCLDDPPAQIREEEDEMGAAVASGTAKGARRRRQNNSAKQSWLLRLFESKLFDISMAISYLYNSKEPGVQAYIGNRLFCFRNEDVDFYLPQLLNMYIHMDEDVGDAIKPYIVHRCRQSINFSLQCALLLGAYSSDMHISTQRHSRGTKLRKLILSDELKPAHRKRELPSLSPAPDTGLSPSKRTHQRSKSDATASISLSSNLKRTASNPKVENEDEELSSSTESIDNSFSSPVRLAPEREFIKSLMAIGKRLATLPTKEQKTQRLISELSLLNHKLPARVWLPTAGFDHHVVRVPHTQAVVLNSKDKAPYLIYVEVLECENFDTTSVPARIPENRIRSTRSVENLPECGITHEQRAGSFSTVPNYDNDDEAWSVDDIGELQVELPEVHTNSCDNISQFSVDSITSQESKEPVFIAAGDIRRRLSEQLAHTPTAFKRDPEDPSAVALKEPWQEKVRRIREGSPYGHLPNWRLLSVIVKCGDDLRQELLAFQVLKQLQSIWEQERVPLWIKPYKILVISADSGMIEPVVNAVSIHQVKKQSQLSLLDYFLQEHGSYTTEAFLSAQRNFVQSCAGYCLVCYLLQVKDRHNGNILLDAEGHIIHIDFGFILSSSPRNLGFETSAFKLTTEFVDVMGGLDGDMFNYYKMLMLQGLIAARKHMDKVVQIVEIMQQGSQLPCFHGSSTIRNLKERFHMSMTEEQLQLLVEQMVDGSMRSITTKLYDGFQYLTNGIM
Chain of Vps34 (Q8NEB9 whole entry, species assumed): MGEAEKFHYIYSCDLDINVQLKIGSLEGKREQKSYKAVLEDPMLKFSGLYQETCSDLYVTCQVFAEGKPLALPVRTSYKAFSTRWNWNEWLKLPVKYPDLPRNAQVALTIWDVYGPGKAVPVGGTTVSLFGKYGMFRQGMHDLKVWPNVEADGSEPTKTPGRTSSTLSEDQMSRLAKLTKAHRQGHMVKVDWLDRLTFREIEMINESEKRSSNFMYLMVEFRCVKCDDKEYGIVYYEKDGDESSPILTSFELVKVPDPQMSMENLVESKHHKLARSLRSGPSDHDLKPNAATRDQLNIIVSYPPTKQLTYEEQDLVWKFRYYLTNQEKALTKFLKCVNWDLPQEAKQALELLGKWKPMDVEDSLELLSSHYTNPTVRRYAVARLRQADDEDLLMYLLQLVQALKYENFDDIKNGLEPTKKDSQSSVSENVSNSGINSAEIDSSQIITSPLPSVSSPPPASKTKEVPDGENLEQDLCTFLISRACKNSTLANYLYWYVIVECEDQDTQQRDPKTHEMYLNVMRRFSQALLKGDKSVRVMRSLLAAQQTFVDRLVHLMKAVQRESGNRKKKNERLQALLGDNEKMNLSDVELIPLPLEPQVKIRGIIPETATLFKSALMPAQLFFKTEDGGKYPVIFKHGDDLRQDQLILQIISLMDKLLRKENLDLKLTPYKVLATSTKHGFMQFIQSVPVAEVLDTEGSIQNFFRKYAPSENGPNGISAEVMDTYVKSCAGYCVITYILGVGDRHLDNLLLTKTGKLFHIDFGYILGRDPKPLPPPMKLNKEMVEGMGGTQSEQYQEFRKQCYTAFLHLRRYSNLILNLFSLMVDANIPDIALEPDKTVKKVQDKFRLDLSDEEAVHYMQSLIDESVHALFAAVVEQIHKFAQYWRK
Description for Vps34: Kinase Glo Luminescent Kinase Assay (Kglo) for Pb 3-Kinase Alpha (A), Pb 3-Kinase Beta (B), Vps34 (C), Pb 4-Kinase Beta (D)
The Kinase Glo Luminescent Kinase Assay (Promega, Madison/Wis., USA) is a homogeneous HTS method of measuring kinase activity by quantifying the amount of ATP remaining in solution following a kinase reaction.
L-α-phosphatidylinositol (PI), provided as 10 mg/ml solution in methanol, was transferred into a glass tube and dried under a nitrogen beam. It was then resuspended in 3% OctylGlucoside (1-0-n-octyl-beta-D-glucopyranoside) by vortexing and stored at 4° C. 5 μL of a mix of PI/OctylGlucoside with the PI 3-kinase alpha and PI 3-kinase beta subtypes, or Vps34 or PI 4-kinase beta were added. Kinase reactions were started by the addition of 5 μl of an ATP-mix containing in a final volume 10 μL 10 mM TRIS-HCl pH 7.5, 3 mM MgCl2, 50 mM NaCl, 0.05% CHAPS, 1 mM DTT and 1 μM ATP at room temperature.
All fits were performed with the program XLfit4 (ID Business Solutions, Guildford, UK).
Description for mTOR: Lanthascreen™ Kinase Binding Assay for mTOR (G)
Binding of an inhibitor to the kinase competes for binding with the tracer, resulting in a loss of FRET.
50 nL of compound dilutions were dispensed onto white 384-well small volume polystyrene plate.

`Cc1cc(-c2nc(-c3cc(S(=O)(=O)NC4CCC(C)(O)CC4)ccc3C)cnc2N)ccn1` (centres unmarked) [Example 129.19, 3-(5-amino-6-(2-methylpyridin-4-yl)pyrazin-2-yl)-N-(4-hydroxy-4-methylcyclohexyl)-4-methylbenzenesulfonamide]: the IC50 was 5110 nM on PI 3-kinase beta [1]; 4370 nM at PI 3-kinase delta [2]; 0.47 µM on PI 3-kinase delta [3] (read-out: Assay F PI3Kδ IC50); more than 10000 nM on PI 3-kinase beta [4]; 7200 nM at PI 4-kinase beta; more than 9100 nM on Vps34. Further, the IC50 was 330 nM on PI 3-kinase alpha [5]; 3430 nM in data set [6]; 3020 nM at mTOR; 8580 nM on PI 3-kinase alpha [7]; 251 nM at PI 3-kinase gamma [9]; 66 nM on PI 3-kinase gamma [10]. In addition, in data set [8], the “Assay M RLM CI(int)” value is 21 µL/min/mg.

Take `Cc1ccc(S(=O)(=O)NCC2(CO)CCCCC2)cc1-c1cnc(N)c(-n2cncn2)n1` [Example 127.52]: the IC50 at PI 3-kinase beta [1] was 340 nM; on PI 3-kinase delta [2], 1100 nM; at PI 3-kinase delta [3] (read-out: Assay F PI3Kδ IC50) it was 0.33 µM; at PI 3-kinase beta [4], 6280 nM; at PI 4-kinase beta it was 3100 nM; at Vps34 it was more than 10000 nM. In addition, the concentration for half-maximal inhibition (IC50) on PI 3-kinase alpha [5] came out at 140 nM; in data set [6], 1770 nM; at mTOR, 3600 nM; on PI 3-kinase alpha [7], 970 nM; at PI 3-kinase gamma [9], 52 nM; at PI 3-kinase gamma [10] it was 9 nM. In addition, the “Assay M RLM CI(int)” value in data set [8] is more than 924 µL/min/mg.

On to `Cc1ncc(-c2nc(-c3cc(S(=O)(=O)N4CCNC(C(F)(F)F)C4)ccc3C)cnc2N)s1` (centres unmarked) [Example 118, 5-(2-Methyl-5-(3-(trifluoromethyl)piperazin-1-ylsulfonyl)phenyl)-3-(2-methylthiazol-5-yl)pyrazin-2-amine], for which the IC50 on PI 3-kinase beta [1] was 470 nM; on PI 3-kinase delta [2], 530 nM; at PI 3-kinase delta [3] (read-out: Assay F PI3Kδ IC50), 0.13 µM; at PI 3-kinase beta [4], 1590 nM; at PI 4-kinase beta, 4720 nM; on Vps34, 1460 nM. For the same compound, the half-maximal inhibitory concentration (IC50) at PI 3-kinase alpha [5] worked out at 30 nM; in [6], 898 nM; at mTOR, 460 nM; at PI 3-kinase alpha [7], 630 nM; on PI 3-kinase gamma [9], 102 nM; on PI 3-kinase gamma [10], 11 nM. The “Assay M RLM CI(int)” value in data set [8] is 264 µL/min/mg.

For the compound `Cc1ccc(S(=O)(=O)NCCC(C)(C)O)cc1-c1cnc(N)c(-c2cn[nH]c2)n1` [Example 119.33], the IC50 was 690 nM at PI 3-kinase beta [1]; 3590 nM on PI 3-kinase delta [2]; 0.26 µM on PI 3-kinase delta [3] (read-out: Assay F PI3Kδ IC50); more than 10000 nM at PI 3-kinase beta [4]; 1000 nM on PI 4-kinase beta; more than 9100 nM at Vps34. For the same compound, the IC50 on PI 3-kinase alpha [5] is 160 nM; in data set [6] it was 601 nM; at mTOR, more than 9100 nM; at PI 3-kinase alpha [7], 5510 nM; at PI 3-kinase gamma [9] it was 730 nM; at PI 3-kinase gamma [10], 14 nM. Further, the “Assay M RLM CI(int)” value in data set [8] was determined as 50 µL/min/mg.

Take `Cc1ccc(S(=O)(=O)NCCC(C)(C)O)cc1-c1cnc(N)c(-c2ccncc2)n1` [Example 119.27]: the IC50 is 4970 nM on PI 3-kinase beta [1]; 910 nM on PI 3-kinase delta [2]; 0.12 µM on PI 3-kinase delta [3] (read-out: Assay F PI3Kδ IC50); 9240 nM on PI 3-kinase beta [4]; 5750 nM at PI 4-kinase beta; more than 9100 nM on Vps34. Moreover, the IC50 was determined as 170 nM on PI 3-kinase alpha [5]; 726 nM in data set [6]; 4780 nM at mTOR; 470 nM at PI 3-kinase alpha [7]; 128 nM on PI 3-kinase gamma [9]; 35 nM on PI 3-kinase gamma [10]. The “Assay M RLM CI(int)” value in data set [8] was 87 µL/min/mg.

On to `Cc1cn(-c2nc(-c3cc(S(=O)(=O)N[C@H]4CC[C@H](O)CC4)ccc3C)cnc2N)cn1` [Example 56, Trans-3-(5-Amino-6-(4-methyl-1H-imidazol-1-yl)pyrazin-2-yl)-N-(-4-hydroxycyclohexyl)-4-methylbenzenesulfonamide], for which the IC50 came out at 1750 nM at PI 3-kinase beta [1]; 3120 nM at PI 3-kinase delta [2]; 0.08 µM on PI 3-kinase delta [3] (read-out: Assay F PI3Kδ IC50); 5880 nM on PI 3-kinase beta [4]; 7270 nM on PI 4-kinase beta; 3520 nM on Vps34. Besides, the IC50 on PI 3-kinase alpha [5] was 290 nM; in [6], 211 nM; on mTOR, 2380 nM; at PI 3-kinase alpha [7], 4400 nM; on PI 3-kinase gamma [9] it was 129 nM; on PI 3-kinase gamma [10], 19 nM. Also, in [8], the “Assay M RLM CI(int)” value was found to be 24 µL/min/mg.

As for `Cc1ccc(S(=O)(=O)N[C@H]2CC[C@H](O)CC2)cc1-c1cnc(N)c(-n2cncn2)n1` [Example 15, Trans-3-(5-Amino-6-(1H-1,2,4-triazol-1-yl)pyrazin-2-yl)-N-(4-hydroxycyclohexyl)-4-methylbenzenesulfonamide], the concentration for half-maximal inhibition (IC50) on PI 3-kinase beta [1] was 1930 nM; at PI 3-kinase delta [2] it was 1450 nM; on PI 3-kinase delta [3] (read-out: Assay F PI3Kδ IC50), 0.15 µM; at PI 3-kinase beta [4], 2010 nM; on PI 4-kinase beta it was 5680 nM; on Vps34, more than 9100 nM. Moreover, the IC50 is 160 nM at PI 3-kinase alpha [5]; 166 nM in data set [6]; more than 9100 nM on mTOR; 1930 nM at PI 3-kinase alpha [7]; 61 nM at PI 3-kinase gamma [9]; 18 nM on PI 3-kinase gamma [10]. In addition, the “Assay M RLM CI(int)” value in [8] came to 24 µL/min/mg.

`Cc1cc(-c2nc(-c3cc(S(=O)(=O)N[C@H]4CC[C@H](O)CC4)ccc3C)cnc2N)on1` [Example 4, Trans-3-[5-Amino-6-(3-methyl-isoxazol-5-yl)-pyrazin-2-yl]-N-(4-hydroxy-cyclohexyl)-4-methyl-benzenesulfonamide]: the IC50 on PI 3-kinase beta [1] is 3240 nM; on PI 3-kinase delta [2], 910 nM; at PI 3-kinase delta [3] (read-out: Assay F PI3Kδ IC50) it was 0.3 µM; on PI 3-kinase beta [4], 4460 nM; on PI 4-kinase beta, 3700 nM; at Vps34, more than 9100 nM. The half-maximal inhibitory concentration (IC50) was 510 nM on PI 3-kinase alpha [5]; 675 nM in [6]; 6510 nM at mTOR; 2550 nM on PI 3-kinase alpha [7]; 38 nM on PI 3-kinase gamma [9]; 26 nM on PI 3-kinase gamma [10]. Moreover, the “Assay M RLM CI(int)” value in data set [8] was determined as 27 µL/min/mg.

Turning to `Cc1ccc(S(=O)(=O)NCCC(C)(C)O)cc1-c1cnc(N)c(-c2cnn(C)c2)n1` [Example 119.16], the concentration for half-maximal inhibition (IC50) was 3790 nM at PI 3-kinase beta [1]; 2350 nM on PI 3-kinase delta [2]; 0.19 µM at PI 3-kinase delta [3] (read-out: Assay F PI3Kδ IC50); 3700 nM on PI 3-kinase beta [4]; 6610 nM on PI 4-kinase beta; 6230 nM at Vps34. Further, the concentration for half-maximal inhibition (IC50) at PI 3-kinase alpha [5] is 390 nM; in data set [6] it was 1240 nM; on mTOR, more than 9100 nM; on PI 3-kinase alpha [7], 4010 nM; on PI 3-kinase gamma [9] it was 81 nM; on PI 3-kinase gamma [10], 22 nM. Besides, the “Assay M RLM CI(int)” value in [8] came out at 21 µL/min/mg.

Regarding `Cc1cc(-c2nc(-c3cc(S(=O)(=O)NCCC(C)(C)O)ccc3C)cnc2N)ccn1` [Example 119.28], the IC50 was 7380 nM at PI 3-kinase beta [1]; 2150 nM on PI 3-kinase delta [2]; 0.19 µM on PI 3-kinase delta [3] (read-out: Assay F PI3Kδ IC50); more than 10000 nM on PI 3-kinase beta [4]; 4410 nM at PI 4-kinase beta; more than 9100 nM at Vps34. Moreover, the 50% inhibitory concentration (IC50) came out at 230 nM on PI 3-kinase alpha [5]; 963 nM in [6]; 6000 nM at mTOR; 1250 nM at PI 3-kinase alpha [7]; 179 nM on PI 3-kinase gamma [9]; 49 nM at PI 3-kinase gamma [10]. The “Assay M RLM CI(int)” value in data set [8] turned out to be 44 µL/min/mg.

On to `Cc1ccc(S(=O)(=O)N[C@H]2CC[C@](C)(O)CC2)cc1-c1cnc(N)c(-n2cncn2)n1` [Example 69a, 3-(5-amino-6-(1H-1,2,4-triazol-1-yl)pyrazin-2-yl)-N-((1r,4r)-4-hydroxy-4-methylcyclohexyl)-4-methylbenzenesulfonamide], for which the IC50 on PI 3-kinase beta [1] is 3500 nM; on PI 3-kinase delta [2] it was 2660 nM; at PI 3-kinase delta [3] (Assay F PI3Kδ IC50 (μM)), 0.53 µM; at PI 3-kinase beta [4], 4420 nM; on PI 4-kinase beta it was more than 10000 nM; at Vps34, more than 10000 nM. In addition, the IC50 stood at 390 nM on PI 3-kinase alpha [5]; 1150 nM in data set [6]; 9200 nM at mTOR; 3300 nM at PI 3-kinase alpha [7]; 103 nM on PI 3-kinase gamma [9]; 38 nM on PI 3-kinase gamma [10]. Moreover, the “Assay M RLM CI(int)” value in data set [8] came out at 49 µL/min/mg.

Usually IC50 stands for the concentration that gives 50% inhibition.

For the origin of these results see patent publication US10004732B2 (Novartis AG, priority 2014, dated 2018).
